According to ChEMBL document CHEMBL1125519, “Thieno[2,3-b]furan-2-sulfonamides as topical carbonic anhydrase inhibitors” (J Med Chem, 1992):
≈ marks a conversion by molar mass, not a printed value.

Tests used:
physchem [1] = details: water
Description: Solubility was evaluated in water at 25 degree Centigrade

Bos taurus [2] = species: Bos taurus
physchem [3] = details: 30% ethanol
Carbonic anhydrase 2 [4] = molecular target: T1, Carbonic anhydrase 2 (Homo sapiens, UniProt P00918)
Description: Compound was evaluated for the inhibition of dansylamide at human carbonic anhydrase II

physchem [5] = details: water; remark: listed apart in the source
Carbonic anhydrase 2 [6] = molecular target: T1, Carbonic anhydrase 2; remark: listed apart in the source
Description: Inhibition of human erythrocyte carbonic anhydrase II

[7] = Solubility was evaluated at pH 7.4 buffer at 25 degree Centigrade; assay type: physicochemical
Bos taurus [8] = species: Bos taurus; assay: Percentage binding to bovine iris and ciliary body; assay type: functional
Bos taurus [9] = species: Bos taurus; assay: Percentage binding of bovine ocular pigment; assay type: functional, Eye
Oryctolagus cuniculus = species: Oryctolagus cuniculus; assay: Compound was evaluated for the lowering of the intraocular pressure (IOP) (2%, 3 drops) in ocular normotensive pigmented rabbits; assay type: functional, Eye
[10] = pKa in water; assay type: physicochemical

SMILES	solubility (physchem [1]) [mg/mL]	Pigment binding (Bos taurus [2]) [%]	pKa (physchem [3])	Ki (Carbonic anhydrase 2 [4]) [nM]	pKa (physchem [5])	IC50 (Carbonic anhydrase 2 [6]) [nM]	solubility [7] [mg/mL]	Pigment binding (Bos taurus [8]) [%]	Binding (Bos taurus [9]) [%]	IOP lowering (Oryctolagus cuniculus) [mmHg]	pKa [10]
NS(=O)(=O)c1cc2cc(CNCCF)sc2o1	> 32	60	9	3.4	6.55	12	–	–	–	–	–
NS(=O)(=O)c1cc2cc(CNCc3ccccn3)sc2o1	20.4 (≈ 63.1 mM)	69	9.08	8.2	7.02	8.2	16.9 (≈ 52.3 mM)	–	–	–	–
CNCc1cc2cc(S(N)(=O)=O)oc2s1	> 51	–	9.25	32.3	7.85	9	–	77	–	–	–
COCCN(CCOC)Cc1cc2cc(S(N)(=O)=O)oc2s1	> 30	–	8.95	2.6	5.57	5.1	–	27	26.9	3.9	–
COCCOCCN(CCOC)Cc1cc2cc(S(N)(=O)=O)oc2s1	–	21	8.85	3.6	5.55	6.49	–	–	–	–	–
CCOCCNCc1cc2cc(S(N)(=O)=O)oc2s1	40.8 (≈ 134 mM)	–	8.9	–	–	8	19.7 (≈ 64.7 mM)	75	–	–	6.85
NS(=O)(=O)c1cc2cc(CN3CCOCC3)sc2o1	> 4.7	–	9.2	1.24	–	5.6	0.97 (≈ 3.21 mM)	25	24.8	2.5	5.32
CC(C)CNCc1cc2cc(S(N)(=O)=O)oc2s1	15.3 (≈ 53.1 mM)	–	9.1	7.4	7.55	6	–	73	–	–	–
COCCCNCc1cc2cc(S(N)(=O)=O)oc2s1	> 34	78	9	–	7.25	12	–	–	–	–	–
NS(=O)(=O)c1cc2cc(CNCCCCO)sc2o1	> 47	–	9.16	–	7.65	11	–	–	–	–	–
COCCNCc1cc2cc(S(N)(=O)=O)oc2s1	> 27	–	9.05	–	–	11	> 27	73	–	–	7
CCCNCc1cc2cc(S(N)(=O)=O)oc2s1	> 22.5	–	9.4	–	7.85	8	–	68	–	–	–
